Results published in US20080300298A1, “Honokiol Derivates For the Treatment of Proliferative Disorders” (priority 2005, published 2008).
Like-named read-outs stand apart in the source and are kept apart here.

How the values were obtained:
HIV-1 = assay: HIV assay in PBM cells (RT activity); assay type: cell-based; conditions: Human immunodeficiency virus 1, PBMC, HIV-1 in human PBM cells; for EC50: read-out: Activity anti-VIH-1 on PBM cells EC50; for EC90: read-out: Activity anti-VIH-1 on PBM cells EC90
Protocol: The antiviral activity of the synthesized compounds and honokiol were evaluated against HIV-1 in human peripheral blood mononuclear (PBM) cells (Table 4).
Human peripheral blood mononuclear (PBM) cells (which can be obtained from Atlanta Red Cross) can be isolated by Ficoll-Hypaque discontinuous gradient centrifugation from healthy seronegative donors. Cells can be stimulated with phytohemagglutinin A (Difco, Sparks, Md.) for 2-3 days prior to use. HIV-1, such as HIV-1LAI can be obtained from the Centers for Disease Control and Prevention (Atlanta, Ga.), and can be used as the standard reference virus for the antiviral assays. The molecular infectious clones HIV-1xxBru and HIV-1M184Vpin can be obtained from Dr. John Mellors (University of Pittsburgh). Infections can be done in bulk for one hour, either with 100 TCID50/1×10^7 cells for a flask (T25) assay or with 200 TCID50/6×10^5 cells/well for a 24 well plate assay. Cells can be added to a plate or flask containing a ten-fold serial dilution of the test compound. Assay medium can be RPMI-1640 supplemented with heat inactivated 16% fetal bovine serum, 1.6 mM L-glutamine, 80 IU/ml penicillin, 80 μg/ml streptomycin, 0.0008% DEAE-Dextran, 0.045% sodium bicarbonate, and 26 IU/ml recombinant interleukin-2 (Chiron Corp, Emeryville, Calif.). AZT can be used as a positive control for the assay. Untreated and uninfected PBM cells can be grown in parallel at equivalent cell concentrations as controls. The cell cultures can be maintained in a humidified 5% CO2-air at 37° C. for 5 days and supernatants can be collected for reverse transcriptase (RT) activity.
Supernatants can be centrifuged at 12,000 rpm for 2 hours to pellet the virus. The pellet can be solubilized with vortexing in 100 μl virus solubilization buffer (VSB) containing 0.5% Triton X-100, 0.8 M NaCl, 0.5 mM phenylmethylsulfonyl fluoride, 20% glycerol, and 0.05 M Tris, pH 7.8. Ten μL of each sample can be added to 75 μL RT reaction mixture (0.06 M Tris, pH 7.8, 0.012 M MgCl2, 0.006 M dithiothreitol, 0.006 mg/ml poly (rA)n, oligo (dT)12-18, 96 μg/ml dATP, and 1 μM of 0.08 mCi/ml ^3H-thymidine triphosphate (Moravek Biochemicals, Brea, Calif.) and can be incubated at 37° C. for 2 hours. The reaction can be stopped by the addition of 100 μL 10% trichloroacetic acid containing 0.05% sodium pyrophosphate. The acid insoluble product can be harvested onto filter paper using a Packard Harvester (Meriden, Conn.), and the RT activity can be read on a Packard Direct Beta Counter (Meriden, Conn.). The RT results can be expressed in counts per minute (CPM) per milliliter. The antiviral 50% effective concentration (EC50) and 90% effective concentration (EC90) can be determined from the concentration-response curve using the median effect method (Belen'kii, S. M.; Schinazi, R. S. Multiple drug effect analysis with confidence interval. Antiviral. Res. 1994, 25, 1-11).

cytotoxicity assay (MTT) [1] = assay type: cell-based, human; conditions: human
Protocol: (§1) The cytotoxicity of the honokiol and analogues thereof were assessed in human PBM, CEM and Vero cells (Table 4). Compounds can be evaluated for their potential toxic effects on uninfected human PBM cells, in CEM (T-lymphoblastoid cell line obtained from American Type Culture Collection, Rockville, Md.) and Vero (African green monkey kidney) cells. PBM cells can be obtained from whole blood of healthy seronegative donors (HIV-1) by single-step Ficoll-Hypaque discontinous gradient centrifugation. […] All of the cells can be plated in 96-well cell culture plates containing ten-fold serial dilutions of the test drug. […] At the end of incubation, MTT tetrazolium dye solution (Cell titer 96®, Promega, Madison, Wis.) can be added to each well and incubated overnight. The reaction can be stopped with stop solubilization solution (Promega, Madison, Wis.). […] The plates can be read at a wavelength of 570 nm using an ELISA plate reader (Bio-tek instruments, Inc., Winooski, Vt., Model #EL 312e). The 50% inhibition concentration (IC50) can be determined from the concentration-response curve using the median effect method.

cytotoxicity assay (MTT) [2] = assay type: cell-based; conditions: for EC50 at 3 days: African green monkey; for EC50 at 4 days: human
Protocol: as §1

[3] = system: SVR (a transformed endothelial cell line); assay: SVR cellular proliferation assay; assay type: cell-based; conditions: Mus musculus, SVR cells; for inhibition at 10 µg/mL: 10 μg/mL; for inhibition at 15 µg/mL: 15 μg/mL
Protocol: The SVR (a transformed endothelial cell line) proliferation assay can be used as a direct measure of antiangiogenic and antitumor activity. This assay serves as a high throughput screen that compares the effects of a compound on proliferation of SVR cells versus an immortalized endothelial cell line, MS1. […] SVR cells were plated in 24-well dishes. The next day, the medium was replaced with fresh medium containing the inhibitors or vehicle controls. Cells were incubated at 37° C. for 72 h (Arbiser, J. L., et al. 1999 J. Am. Acad. Dermatol. 40, 925-929; LaMontagne, K. R., et al. 2000 Am. J. Pathol. 157, 1937-1945), and cell number was determined in triplicate using a Coulter Counter (Hialeah, Fla.). Immortalized and K-Ras transformed rat epithelial cells (RIEpZip and […]) and fibroblasts (NIH3T3 pZip and NIH3T3 pZipK-Ras12V) were maintained at 37° C., 10% CO2, in Dulbecco's modified Eagle's medium supplemented with 5% fetal calf serum (RIE) or 10% calf serum (NIH3T3) (Oldham, S. M., et al. 1996 Proc. Natl. Acad. Sci. U.S.A. 93, 6924-6928; Pruitt, K., et al. 2000 J. Biol. Chem. 275, 40916-40924). Cells were plated at 10^5/well in six-well plates.

[4] = toxicity in mice (Table 5); conditions: mouse, in vivo
Source text: In vivo models of cancer growth include xenografts of human tumor cells injected into animals, such as mice, particularly immunocomprimised mice. Toxicity of the compounds can also be assessed in these assays through daily administration of the compounds to the animals combined with daily monitoring of the animals. The animals can also be monitored for two weeks to look for weight loss, as well as other common toxicities known to one skilled in the art, such as altered grooming, decreased movement of mice, and tremor. The compounds can also be tested for their ability to inhibit tumor growth in animals. SVR angiosarcoma tumor cells, for example, can be injected into animals, such as immunocompromised mice. Mice can be injected with approximately one million SVR cells subcutaneously, and when tumors become palpable, can be treated with a beginning dose (such as 120 mg/kg intraperitoneally) once daily. Drugs that are active at 120 mg/kg can then be retested at lower doses of 80 mg/kg, 40 mg/kg, etc. Tumor volume can be calculated using the formula (w2×L)0.52, where w (width) represents the smallest dimension of the tumor. Mice can be treated for a period of time such as approximately 30 days, or until tumor growth reaches 1 cm^3.

[5] = uninfected PBM cells, read-out: Cytotoxicity (EC50-μM) in: PBM
[6] = Vero cells, read-out: Cytotoxicity (EC50-μM) in: VERO
[7] = CEM cells, read-out: Cytotoxicity (EC50-μM) in: CEM
[8] = Vero kidney cells, Vero cells, read-out: Cytotoxicity (EC50-μM) in: VERO
[9] = CEM T-lymphoblastoid cells, CEM cells, read-out: Cytotoxicity (EC50-μM) in: CEM

| Compound | inhibition at 10 µg/mL [3] [%] | inhibition at 15 µg/mL [3] [%] | also measured |
| --- | --- | --- | --- |
| C=CCc1ccc(O)c(-c2cc(CC=C)ccc2O)c1 |  |  | EC50 (HIV-1): 69.3 µM; EC90 (HIV-1): > 100 µM; EC50 at 5 days (cytotoxicity assay (MTT) [1]; [5]): 38.6 µM; EC50 at 3 days (cytotoxicity assay (MTT) [2]; [6]): 79.9 µM; EC50 at 4 days (cytotoxicity assay (MTT) [2]; [7]): 99.6 µM |
| C=CCC1=C(CC=C)C(=O)c2ccccc2C1=O | 87.5 | 91.5 | Toxicity [4]: Toxic |
| C=CCc1ccc(OS(=O)(=O)c2ccccc2)c(-c2ccc(OS(=O)(=O)c3ccccc3)c(CC=C)c2)c1 | 35.3 | 37.9 |  |
| C=CCc1ccc(O)c(CC=C)c1O | 37.2 | 36 |  |
| C=CCc1cc(-c2cccc(CC=C)c2O)ccc1O | 74.2 | 81.6 |  |
| C=CCc1c(O)ccc2c3ccccc3n(CC=C)c12 | 69.7 | 78.7 |  |
| C=CCc1cc2c3ccccc3n(CC=C)c2cc1O | 68.9 | 76.1 |  |
| O=C(CCc1ccccc1)Oc1cc(OC(=O)CCc2ccccc2)cc(OC(=O)CCc2ccccc2)c1 | 5 | 25 |  |
| C=CCc1cccc(-c2ccccc2O)c1O | 47.1 | 59.3 |  |
| C=CCc1cc(Cc2ccc(O)c(CC=C)c2)ccc1O | 75.5 | 73.7 | Toxicity [4]: Toxic |
| C=CCOc1ccc(/C=C/C(=O)CC(=O)/C=C/c2ccc(OCC=C)c(OC)c2)cc1OC | 70 | 67.9 |  |
| C=CCOc1ccc(/C=C/C(=O)CC(=O)/C=C/c2ccc(O)c(OC)c2)cc1OC | 75.2 | 78.8 |  |
| C=CCc1cc(/C(CC)=C(\CC)c2ccc(O)c(CC=C)c2)ccc1O | 68.4 | 89.3 | Toxicity [4]: Toxic |
| O=C(/C=C/c1ccccc1)Oc1cc(OC(=O)/C=C/c2ccccc2)cc(OC(=O)/C=C/c2ccccc2)c1 | 13.4 | 8.6 |  |
| C=CCc1cc(-c2ncc(O)cn2)ccc1O | 4.4 | 10 |  |
| C=CCc1cc(C(C)(C)c2ccc(O)c(CC=C)c2)ccc1O | 32.9 | 57.1 |  |

| Compound | inhibition at 10 µg/mL [3] [%] | inhibition at 15 µg/mL [3] [%] | also measured |
| --- | --- | --- | --- |
| C=CCOc1cc2c(cc1OCC=C)C1c3ccc(OCC=C)c(OCC=C)c3OCC1(O)C2 (stereo not drawn) | 13.8 | 41.8 |  |
| C=CCc1cc(C(=C(Cl)Cl)c2ccc(O)c(CC=C)c2)ccc1O | 53.6 | 75.6 |  |
| C=CCc1cc(C(c2ccc(O)c(CC=C)c2)c2ccccn2)ccc1O | 25.2 | 46.1 |  |
| C=CCc1ccc2c(c1)-c1cc(CC=C)ccc1OC(C)(C)O2 [drawing 42] |  |  | EC50 (HIV-1): 13.6 µM; EC90 (HIV-1): 43.3 µM; EC50 at 5 days (cytotoxicity assay (MTT) [1]; [5]): 75.3 µM; EC50 at 3 days (cytotoxicity assay (MTT) [2]; [8]): > 100 µM; EC50 at 4 days (cytotoxicity assay (MTT) [2]; [9]): 11.6 µM |
| C=CCc1ccc(O)c(-c2ccc(O)c(CC=C)c2)c1 [drawing 43] |  |  | EC50 (HIV-1): 3.3 µM; EC90 (HIV-1): 22.7 µM; EC50 at 5 days (cytotoxicity assay (MTT) [1]): 16.1 µM; EC50 at 3 days (cytotoxicity assay (MTT) [2]): 22.5 µM; EC50 at 4 days (cytotoxicity assay (MTT) [2]): 10.9 µM |
| CCCc1ccc(O)c(-c2ccc(O)c(CCC)c2)c1 [drawing 44] |  |  | EC50 (HIV-1): 16.9 µM; EC90 (HIV-1): 69.4 µM; EC50 at 5 days (cytotoxicity assay (MTT) [1]; [5]): 45.9 µM; EC50 at 3 days (cytotoxicity assay (MTT) [2]; [8]): 19.8 µM; EC50 at 4 days (cytotoxicity assay (MTT) [2]; [9]): 10.4 µM |
| C=CCc1ccc(OC)c(-c2ccc(OC)c(CC=C)c2)c1 [drawing 45] |  |  | EC50 (HIV-1): 54.3 µM; EC90 (HIV-1): > 100 µM; EC50 at 5 days (cytotoxicity assay (MTT) [1]; [5]): > 100 µM; EC50 at 3 days (cytotoxicity assay (MTT) [2]; [8]): > 100 µM; EC50 at 4 days (cytotoxicity assay (MTT) [2]; [9]): 19.1 µM |
| C=CCc1cccc(-c2cccc(CC=C)c2O)c1O [drawing 46] |  |  | EC50 (HIV-1): 34.8 µM; EC90 (HIV-1): 63 µM; EC50 at 5 days (cytotoxicity assay (MTT) [1]; [5]): > 100 µM; EC50 at 3 days (cytotoxicity assay (MTT) [2]; [8]): > 100 µM; EC50 at 4 days (cytotoxicity assay (MTT) [2]; [9]): > 100 µM |
| C=CCc1cc(-c2ccc(O)c(CC=C)c2)ccc1O [drawing 47] |  |  | EC50 (HIV-1): 19.4 µM; EC90 (HIV-1): 66.4 µM; EC50 at 5 days (cytotoxicity assay (MTT) [1]; [5]): > 100 µM; EC50 at 3 days (cytotoxicity assay (MTT) [2]; [6]): 33.2 µM; EC50 at 4 days (cytotoxicity assay (MTT) [2]; [7]): 23 µM |
| C=CCc1ccc(O)c(-c2ccc(O)c(CC=C)c2)c1 [drawing 48] | 59.9 | 85 |  |
| CCCc1ccc(O)c(-c2ccc(O)c(CCC)c2)c1 [drawing 49] | 79.2 | 89.6 |  |
| C=CCc1cccc(-c2cccc(CC=C)c2O)c1O [drawing 50] | 40.8 | 57.2 |  |
| C=CCc1ccc2c(c1)-c1cc(CC=C)ccc1OC(C)(C)O2 [drawing 54] | 61.9 | 59.7 |  |
| C=CCc1ccc(OC)c(-c2ccc(OC)c(CC=C)c2)c1 [drawing 55] | 40.6 | 47.2 |  |
| C=CCc1cc(-c2ccc(O)c(CC=C)c2)ccc1O [drawing 56] | 44.9 | 56.2 | Toxicity [4]: Toxic |
